These results are taken from article PMC8247115 (Cell, 2020).

Test [1] addresses T1, CB2 (Homo sapiens, UniProt P34972). Briefly: cell-based. It is filed as cell-based. Conditions: for functional behaviour at CB2: cAMP functional assay.
Test [2] has as its target T1, CB2. As to conditions: read-out: Ki CB2; partial agonist on CB2; ref Dhopeshwarkar et al., 2017; cited from earlier work.
A further test addresses CB1. As to conditions: read-out: Ki CB1; antagonist on CB1; ref Dhopeshwarkar et al., 2017; cited from earlier work.

T1 sequence (P34972 whole entry): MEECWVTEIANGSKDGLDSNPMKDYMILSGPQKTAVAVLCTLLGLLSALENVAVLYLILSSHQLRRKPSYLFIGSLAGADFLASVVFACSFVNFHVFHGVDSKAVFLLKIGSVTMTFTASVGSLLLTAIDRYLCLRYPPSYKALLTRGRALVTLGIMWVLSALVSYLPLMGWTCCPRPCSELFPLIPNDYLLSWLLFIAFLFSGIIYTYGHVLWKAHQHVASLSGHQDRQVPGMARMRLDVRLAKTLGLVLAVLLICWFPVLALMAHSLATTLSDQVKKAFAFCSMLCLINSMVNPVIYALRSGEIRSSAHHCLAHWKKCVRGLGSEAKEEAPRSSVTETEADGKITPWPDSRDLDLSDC

Take `CCN(CC)c1ccc(CN(Cc2cc(OC)c(OC)c(OC)c2)S(=O)(=O)/C=C/c2ccccc2)cc1` [XIE55, (E)-N-(4-(diethylamino)benzyl)-2-phenyl-N-(3,4,5-trimethoxybenzyl)ethene-1-sulfonamide]: on CB2 [1], the EC50 is 1.5 ± 0.4 µM and the “functional behaviour at CB2” value was “inverse agonist”.

Consider `COc1ccc2c(c1)c(CCN1CCOCC1)c(C)n2C(=O)c1cccc(Cl)c1Cl` [GW-405,833], for which the results for the Ki on CB2 [2] and on CB1 were 0.00392 ± 0.00158 µM and 4.77 ± 1.68 µM, respectively.

As for `CCN(CC)c1ccc(CN(Cc2cc(OC)c(OC)c(OC)c2)S(=O)(=O)c2cccs2)cc1` [XIE57, N-(4-(diethylamino)benzyl)-N-(3,4,5-trimethoxybenzyl)thiophene-2-sulfonamide], on CB2 [1], the EC50 worked out at 6.9 ± 2.9 µM and the “functional behaviour at CB2” value is given as “partial agonist”.
